# Data taken from PubChem BioAssay AID1919014 (Molecular Pharmacology Branch, DTP, NCI, 2023).
# Test system: NCI-H1341 complex spheroids, percent test/control
# Assay: Anticancer human tumor NCI-H1341 cell line growth inhibition [AhR];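 also: spheroids exposed to agents for seven days before readout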
# Conditions: for IC50: curve of first compound; for viability, T/C: stronger effect = lower value
# Summary of the method: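 Agents were dosed in half-log steps down from roughly clinical Cmax, or from 10 microM where Cmax was unknown, alone and with AhR antagonists. Read-out: percent test/control growth of tumor spheroids containing HUVEC and MSC stromal cells.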
# [1] = second compound 0.1 µM, first compound 0.0316 µM
# [2] = second compound 0.1 µM, first compound 0.1 µM
# [3] = second compound 0.1 µM, first compound 0.316 µM
# [4] = second compound 0.1 µM, first compound 1 µM
# [5] = second compound 0.1 µM, first compound 3.16 µM
# [6] = second compound 0.1 µM, first compound 10 µM
# [7] = second compound 0.316 µM, first compound 0.0316 µM
# [8] = second compound 0.316 µM, first compound 0.1 µM
# [9] = second compound 0.316 µM, first compound 0.316 µM
# [10] = second compound 0.316 µM, first compound 1 µM
# [11] = second compound 0.316 µM, first compound 3.16 µM
# [12] = second compound 0.316 µM, first compound 10 µM
# [13] = second compound 1 µM, first compound 0.0316 µM
# [14] = second compound 1 µM, first compound 0.1 µM
# [15] = second compound 1 µM, first compound 0.316 µM
# [16] = second compound 1 µM, first compound 1 µM
# [17] = second compound 1 µM, first compound 3.16 µM
# [18] = second compound 1 µM, first compound 10 µM
# [19] = second compound 3.16 µM, first compound 0.0316 µM
# [20] = second compound 3.16 µM, first compound 0.1 µM
# [21] = second compound 3.16 µM, first compound 0.316 µM
# [22] = second compound 3.16 µM, first compound 1 µM
# [23] = second compound 3.16 µM, first compound 3.16 µM
# [24] = second compound 3.16 µM, first compound 10 µM
# [25] = second compound 10 µM, first compound 0.0316 µM
# [26] = second compound 10 µM, first compound 0.1 µM
# [27] = second compound 10 µM, first compound 0.316 µM
# [28] = second compound 10 µM, first compound 1 µM
# [29] = second compound 10 µM, first compound 3.16 µM
# [30] = second compound 10 µM, first compound 10 µM
SMILES,IC50 (second compound 0.1 µM) [nM],IC50 (second compound 0.316 µM) [nM],IC50 (second compound 1 µM) [nM],IC50 (second compound 3.16 µM) [nM],IC50 (second compound 10 µM) [nM],"viability, T/C [1] [%]","viability, T/C [2] [%]","viability, T/C [3] [%]","viability, T/C [4] [%]","viability, T/C [7] [%]","viability, T/C [8] [%]","viability, T/C [9] [%]","viability, T/C [10] [%]","viability, T/C [13] [%]","viability, T/C [14] [%]","viability, T/C [15] [%]","viability, T/C [16] [%]","viability, T/C [19] [%]","viability, T/C [20] [%]","viability, T/C [21] [%]",further results
CC(C)c1c(-c2ccccc2)nc2c(C#N)c[nH]n2c1=O + CC(CO)NC(=O)c1cc(-c2ccc(Cl)cc2)nn(-c2cnn(C)c2)c1=O,> 10000,> 10000,> 10000,> 10000,> 10000,85.4,89.8,78.7,82.6,86.8,95.6,93,100,96.1,91.2,95.6,94.5,84.5,99.2,106,"viability, T/C [5]: 101%; viability, T/C [6]: 88.4%; viability, T/C [11]: 86.5%; viability, T/C [12]: 73%; viability, T/C [17]: 76.2%; viability, T/C [18]: 69.5%; viability, T/C [22]: 81.8%; viability, T/C [23]: 64.5%; viability, T/C [24]: 79.1%; viability, T/C [25]: 86.2%; viability, T/C [26]: 74.4%; viability, T/C [27]: 74.2%; viability, T/C [28]: 71.6%; viability, T/C [29]: 70.9%; viability, T/C [30]: 59.8%"
CC1COCCN1c1cc(-c2ccnn2C)c2ccnc(-c3ccn[nH]3)c2n1 (stereo not given) + CC(CO)NC(=O)c1cc(-c2ccc(Cl)cc2)nn(-c2cnn(C)c2)c1=O,45.8,34.3,24.8,25.3,16.8,61.2,28.6,20.5,20.2,54.5,29.7,23.8,18.2,44.6,25.3,22.7,19.2,43.1,24.6,23.7,"viability, T/C (second compound 0.1 µM, first compound 0.00316 µM): 87.6%; viability, T/C (second compound 0.1 µM, first compound 0.01 µM): 77.6%; viability, T/C (second compound 0.316 µM, first compound 0.00316 µM): 96.4%; viability, T/C (second compound 0.316 µM, first compound 0.01 µM): 73.6%; viability, T/C (second compound 1 µM, first compound 0.00316 µM): 90.2%; viability, T/C (second compound 1 µM, first compound 0.01 µM): 72.3%; viability, T/C (second compound 3.16 µM, first compound 0.00316 µM): 84.3%; viability, T/C (second compound 3.16 µM, first compound 0.01 µM): 77.3%; viability, T/C [22]: 17.8%; viability, T/C (second compound 10 µM, first compound 0.00316 µM): 71.2%; viability, T/C (second compound 10 µM, first compound 0.01 µM): 64%; viability, T/C [25]: 33%; viability, T/C [26]: 21.6%; viability, T/C [27]: 22.2%; viability, T/C [28]: 17.8%"
COc1ccc([C@@H](O)c2cc(-c3ncnc4cc(N5CCOCC5)ccc34)c(F)cc2Cl)nn1 + CC(CO)NC(=O)c1cc(-c2ccc(Cl)cc2)nn(-c2cnn(C)c2)c1=O,1470,1140,1060,1220,691,101,89.7,82.5,61,88,93.7,72.7,48.8,89.7,83.8,76.6,48.2,79.6,84.8,85.9,"viability, T/C [5]: 29.6%; viability, T/C [6]: 8.94%; viability, T/C [11]: 32.7%; viability, T/C [12]: 8.73%; viability, T/C [17]: 28.2%; viability, T/C [18]: 8.67%; viability, T/C [22]: 52.7%; viability, T/C [23]: 24%; viability, T/C [24]: 7.24%; viability, T/C [25]: 90.2%; viability, T/C [26]: 75.8%; viability, T/C [27]: 68.2%; viability, T/C [28]: 41.5%; viability, T/C [29]: 22.1%; viability, T/C [30]: 7.39%"
COc1cccc2c1C(=O)c1c(O)c3c(c(O)c1C2=O)CC(O)(C(=O)CO)CC3OC1CC(N)C(O)C(C)O1 (stereo not given) + Cc1ccccc1N=Nc1ccc(NC(=O)c2ccnn2C)c(C)c1,92.8,< 31.6,166,< 31.6,< 31.6,59.7,44.6,37.9,18.2,50,48.6,38.2,24.2,58.8,51.5,44.6,16.5,50.1,48.2,41.1,"viability, T/C [5]: 1.96%; viability, T/C [6]: 4.55%; viability, T/C [11]: 2.31%; viability, T/C [12]: 4.21%; viability, T/C [17]: 2.36%; viability, T/C [18]: 4.45%; viability, T/C [22]: 16.2%; viability, T/C [23]: 3.35%; viability, T/C [24]: 5.99%; viability, T/C [25]: 40.9%; viability, T/C [26]: 41.2%; viability, T/C [27]: 35.9%; viability, T/C [28]: 14.4%; viability, T/C [29]: 5.03%; viability, T/C [30]: 4.31%"
